These results are taken from patent US8241872B2, “Microorganism producing cyclic compound” (Astellas Pharma Inc., priority 2008, dated 2012).

Non-standard residues stand in square brackets, D forms with d. Residues, ends and D or L forms follow the SMILES beside them. ξ: configuration not given here. ξOrn(N(OH)Ac) = CC(=O)N(O)CCCC(N)C(=O)O

What all share (assay): Antifungal activity, broth microdilution method
Holding throughout (assay type): cell-based
(Dilution methods test growth across graded concentrations, often in twofold steps.)

The subject of one experiment is Candida glabrata FP1944. On the procedure: (§1) Antifungal activities for test fungi shown in Table 15 was determined by a broth microdilution method (Hikaru Kume and Toshikazu Yamazaki, Clinical Microbiology, Vol. 21, No. 5, pp. 573-580, 1994).
Experiment [1] deals with Alternaria alternata AHU9258. The method, then:
as §1

In another experiment the test system is Candida krusei FP1979. The method, then:
as §1

Experiment [2] has as its system Trichophyton rubrum FP596. The method, then:
as §1

In experiment [3] the test system is Candida guilliermondii FP2086. On the procedure: as §1
In another experiment the test system is Fusarium solani FP1930. The method, then: as §1
The subject of experiment [4] is Aspergillus fumigatus FP1305. On the procedure: as §1
The test system of experiment [5] is Trichosporon asahi FP2044. The method, then: as §1
The test system of experiment [6] is Aspergillus terreus SR0174. On the procedure: as §1
Experiment [7] relates to Pseudallescheria boydii FP1987. On the procedure:
as §1

Experiment [8] has as its system Trichophyton mentagrophytes FP2103. On the procedure: as §1
Experiment [9] deals with Aspergillus flavus ATCC9643. The method, then:
as §1

The next experiment deals with Rhizopus oryzae FP1988. On the procedure: as §1
Experiment [10] relates to Aspergillus niger ATCC6275. The method, then: as §1
Experiment [11] deals with Cryptococcus neoformans FP1739. The method, then: as §1
Experiment [12] deals with Candida parapsilosis FP1980. On the procedure: as §1

As for `CC(=O)N(O)CCCC1NC(=O)C(CCCN(O)C(C)=O)NC(=O)C(Cc2ccccc2)NC(=O)C(CC(C)C)NC(=O)C(CC(N)=O)NC(=O)C(CCCN(O)C(C)=O)NC1=O` (stereo not shown) [compound B] (cyclo([ξOrn(N(OH)Ac)][ξOrn(N(OH)Ac)][ξOrn(N(OH)Ac)]NLF); configuration not given here), the “MEC (minimum effective concentration)” value in the experiment with Candida glabrata FP1944 turned out to be 0.31 µg/mL; in experiment [1], 0.1 µg/mL; in the experiment on Candida krusei FP1979 it was 0.31 µg/mL; in experiment [2] it was 1.25 µg/mL; in experiment [3] it was 0.31 µg/mL; in the experiment with Fusarium solani FP1930, 0.2 µg/mL. Also, the “MEC (minimum effective concentration)” value came out at 0.31 µg/mL in experiment [4]; 0.2 µg/mL in experiment [5]; 0.31 µg/mL in experiment [6]; 0.2 µg/mL in [7]; 0.78 µg/mL in [8]; 0.2 µg/mL in experiment [9]. Further, the “MEC (minimum effective concentration)” value in the experiment with Rhizopus oryzae FP1988 was 25 µg/mL; in experiment [10], 0.78 µg/mL; in experiment [11] it was 0.2 µg/mL; in [12] it was 0.39 µg/mL.
